Test results taken from US20240150321A1, “PYRAZOLYLSULFONAMIDE COMPOUNDS AND THEIR USE IN THERAPY” (HOTSPOT THERAPEUTICS, INC., priority 2022, published 2024).

Assays:
Avi-tagged FL MALT-1 = Avi-tagged FL MALT-1 (Homo sapiens (Human), UniProt Q9UDY8); assay: MALT-1 Fluorogenic Peptide Cleavage Assay (MALT1 inhibition assay); assay type: biochemical; conditions: Ac-LRSR-AMC peptide substrate, 30 min pre-incubation, 90 min reaction at room temperature
Summary of the method: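 Cleavage of Ac-LRSR-AMC, read as fluorescence at 342/441 nm after 90 min at room temperature, with substrate working stocks of 50 μM (Km) or 280 μM (10×Km). Enzyme, Avi-tagged full-length MALT-1 (40 nM stock), was first pre-incubated 30 min with compound in citrate/HEPES pH 6.89 buffer with TCEP, EDTA, CHAPS and 2% DMSO; IC50 fitted from normalised % inhibition.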

[1] = tested on: NF-kB reporter in Jurkat cells; assay: NF-kB reporter assay in Jurkat cells stimulated with aCD3/aCD28/PMA; assay type: cell-based; conditions: Homo sapiens; Jurkat cells, 1 hr compound pre-incubation, aCD3/aCD28/PMA stimulation 4 hr, One-Glo readout; read-out: NF-kB Reporter Assay IC50
Summary of the method: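 Luminescence (One-Glo) from the NF-kB reporter yielded IC50 values. Stimulation lasted 4 h at 37° C with aCD3, aCD28 and PMA (final 5, 5 and 0.03 […]), after 1 h compound pre-exposure of 25,000 Jurkat cells per well in serum-free RPMI.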

Chain of Avi-tagged FL MALT-1 (Q9UDY8 whole entry): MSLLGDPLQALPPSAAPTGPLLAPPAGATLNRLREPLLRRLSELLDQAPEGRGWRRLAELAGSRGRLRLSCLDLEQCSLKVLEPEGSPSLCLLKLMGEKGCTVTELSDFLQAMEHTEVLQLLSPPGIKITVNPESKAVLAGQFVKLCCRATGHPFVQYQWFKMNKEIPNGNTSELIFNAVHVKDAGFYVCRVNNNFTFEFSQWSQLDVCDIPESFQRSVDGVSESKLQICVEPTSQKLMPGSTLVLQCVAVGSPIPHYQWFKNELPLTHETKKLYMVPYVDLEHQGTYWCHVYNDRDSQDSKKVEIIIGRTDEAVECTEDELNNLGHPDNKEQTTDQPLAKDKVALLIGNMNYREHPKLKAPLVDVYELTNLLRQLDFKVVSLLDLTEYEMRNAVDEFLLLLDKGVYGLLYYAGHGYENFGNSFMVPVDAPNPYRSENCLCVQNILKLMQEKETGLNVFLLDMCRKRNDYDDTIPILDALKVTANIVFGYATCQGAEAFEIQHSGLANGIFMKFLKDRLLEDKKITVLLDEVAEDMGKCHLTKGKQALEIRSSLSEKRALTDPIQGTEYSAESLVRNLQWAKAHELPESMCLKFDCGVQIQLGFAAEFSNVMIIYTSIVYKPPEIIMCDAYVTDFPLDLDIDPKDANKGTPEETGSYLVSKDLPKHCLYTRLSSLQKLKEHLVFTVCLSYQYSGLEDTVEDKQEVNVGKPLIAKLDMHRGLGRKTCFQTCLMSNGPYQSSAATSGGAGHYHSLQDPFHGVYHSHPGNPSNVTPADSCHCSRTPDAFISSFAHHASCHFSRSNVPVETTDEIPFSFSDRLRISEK

| SMILES | IC50 (Avi-tagged FL MALT-1) [nM] | IC50 [1] [nM] |
| --- | --- | --- |
| COc1ccc2cnn(C)c2c1NS(=O)(=O)c1cnn(-c2cc(C3(F)COC3)ccn2)c1 [Compound I-69, 1-(4-(3-Fluorooxetan-3-yl)Pyridin-2-yl)-N-(6-Methoxy-1-Methyl-1H-Indazol-7-yl)-1H-Pyrazole-4-Sulfonamide] | ≤ 400 | < 400 |
| [2H]C([2H])([2H])c1ccc2cnn(C)c2c1NS(=O)(=O)c1cnn(-c2cc(C(F)(F)F)ccn2)c1 [Compound I-71, N-(1-Methyl-6-(Methyl-D3)-1H-Indazol-7-yl)-1-(4-(Trifluoromethyl)Pyridin-2-yl)-1H-Pyrazole-4-Sulfonamide] | ≤ 400 | < 400 |
| Cn1ncc2cccc(NS(=O)(=O)c3cnn(-c4ccnc(C5CC5)c4)c3)c21 [Compound I-75, 1-(2-Cyclopropylpyridin-4-yl)-N-(1-Methyl-1H-Indazol-7-yl)-1H-Pyrazole-4-Sulfonamide] | > 2500 | 400 to 1000 |
| COc1ccc2[nH]nc(C)c2c1N(C)S(=O)(=O)c1cnn(-c2cc(C(F)(F)F)ccn2)c1 [Compound I-82, N-(5-Methoxy-3-Methyl-1H-Indazol-4-yl)-N-Methyl-1-(4-(Trifluoromethyl)Pyridin-2-yl)-1H-Pyrazole-4-Sulfonamide] | ≤ 400 | < 400 |
| COc1ccc2cnn(C)c2c1NS(=O)(=O)c1cnn(-c2cc(C(F)(F)F)ccn2)c1C [Compound I-84, N-(6-Methoxy-1-Methyl-1H-Indazol-7-yl)-5-Methyl-1-(4-(Trifluoromethyl)Pyridin-2-yl)-1H-Pyrazole-4-Sulfonamide] | ≤ 400 | < 400 |
| Cn1ncc2ccc(Cl)c(NS(=O)(=O)c3cnn(-c4cc(C(F)(F)F)ccn4)c3)c21 [Compound I-85, N-(6-chloro-1-Methyl-1H-Indazol-7-yl)-1-(4-(Trifluoromethyl)Pyridin-2-yl)-1H-Pyrazole-4-Sulfonamide] | ≤ 400 | < 400 |
| Cc1n[nH]c2cccc(NS(=O)(=O)c3cnn(-c4cc(C5CC5)ccn4)c3)c12 [Compound I-89, 1-(4-Cyclopropylpyridin-2-yl)-N-(3-Methyl-1H-Indazol-4-yl)-1H-Pyrazole-4-Sulfonamide] | > 2500 | < 400 |
| COc1cnc(C(F)(F)F)cc1-n1cc(S(=O)(=O)Nc2c(OC)ccc3cnn(C)c23)cn1 [Compound I-90, N-(6-Methoxy-1-Methyl-1H-Indazol-7-yl)-1-(5-Methoxy-2-(Trifluoromethyl)Pyridin-4-yl)-1H-Pyrazole-4-Sulfonamide] | ≤ 400 | < 400 |
| COc1ccc2cnn(C)c2c1NS(=O)(=O)c1cnn(-c2cc(C(C)(F)F)ccn2)c1 [Compound I-91, 1-(4-(1,1-Difluoroethyl)Pyridin-2-yl)-N-(6-Methoxy-1-Methyl-1H-Indazol-7-yl)-1H-Pyrazole-4-Sulfonamide] | ≤ 400 | < 400 |
| COC1(c2ccnc(-n3cc(S(=O)(=O)Nc4cccc5cnn(C)c45)cn3)c2)CCC1 [Compound I-93, 1-(4-(1-Methoxycyclobutyl)Pyridin-2-yl)-N-(1-Methyl-1H-Indazol-7-yl)-1H-Pyrazole-4-Sulfonamide] | > 2500 | < 400 |
| [2H]C([2H])([2H])n1ncc2ccc(OC)c(NS(=O)(=O)c3cnn(-c4cc(C5CC5)ccn4)c3)c21 [Compound I-97, 1-(4-Cyclopropylpyridin-2-yl)-N-(6-Methoxy-1-(Methyl-D3)-1H-Indazol-7-yl)-1H-Pyrazole-4-Sulfonamide] | ≤ 400 | < 400 |
| COCCn1ncc2cccc(NS(=O)(=O)c3cnn(-c4cc(C(F)(F)F)ccn4)c3)c21 [Compound I-98, N-(1-(2-Methoxyethyl)-1H-Indazol-7-yl)-1-(4-(Trifluoromethyl)Pyridin-2-yl)-1H-Pyrazole-4-Sulfonamide] | > 2500 | > 2500 |

Next, values leading:

| IC50 (Avi-tagged FL MALT-1) [nM] | IC50 [1] [nM] | SMILES |
| --- | --- | --- |
| ≤ 400 | < 400 | [2H]C([2H])([2H])Oc1ccc2cnn(C)c2c1NS(=O)(=O)c1cnn(-c2cc(C(F)(F)F)ccn2)c1 [Compound I-70, N-(6-(Methoxy-D3)-1-Methyl-1H-Indazol-7-yl)-1-(4-(Trifluoromethyl)Pyridin-2-yl)-1H-Pyrazole-4-Sulfonamide] |
| ≤ 400 | < 400 | COc1ccc2cnn(C)c2c1NS(=O)(=O)c1cnn(-c2cc(C(F)(F)F)ccn2)c1 [Compound I-72, N-(6-Methoxy-1-(Methyl-D3)-1H-Indazol-7-yl)-1-(4-(Trifluoromethyl)Pyridin-2-yl)-1H-Pyrazole-4-Sulfonamide] |
| 1000 to 2500 | < 400 | Cc1n[nH]c2cccc(NS(=O)(=O)c3cnn(-c4cc(C(F)(F)F)ccn4)c3)c12 [Compound I-73, N-(3-Methyl-1H-Indazol-4-yl)-1-(4-(Trifluoromethyl)Pyridin-2-yl)-1H-Pyrazole-4-Sulfonamide] |
| ≤ 400 | 1000 to 2500 | Cc1ccc2[nH]nc(C)c2c1NS(=O)(=O)c1cnn(-c2ccnc(C(F)(F)F)c2)c1 [Compound I-74, N-(3,5-Dimethyl-1H-Indazol-4-yl)-1-(2-(Trifluoromethyl)Pyridin-4-yl)-1H-Pyrazole-4-Sulfonamide] |
| 1000 to 2500 | < 400 | Cn1ncc2cccc(NS(=O)(=O)c3cnn(-c4cc(C5CC5)ccn4)c3)c21 [Compound I-76, 1-(4-Cyclopropylpyridin-2-yl)-N-(1-Methylindazol-7-yl)Pyrazole-4-Sulfonamide] |
| ≤ 400 | < 400 | COc1ccc2cnn(C)c2c1NS(=O)(=O)c1cnn(-c2ccnc(C3CC3)c2)c1 [Compound I-77, 1-(2-Cyclopropylpyridin-4-yl)-N-(6-Methoxy-1-Methyl-1H-Indazol-7-yl)-1H-Pyrazole-4-Sulfonamide] |
| ≤ 400 | 400 to 1000 | CCc1ccc2[nH]nc(C)c2c1N(C)S(=O)(=O)c1cnn(-c2cc(C)ccn2)c1 [Compound I-78, N-(5-Ethyl-3-Methyl-1H-Indazol-4-yl)-N-Methyl-1-(4-Methylpyridin-2-yl)Pyrazole-4-Sulfonamide] |
| ≤ 400 | < 400 | COc1ccc2[nH]nc(C)c2c1NS(=O)(=O)c1cnn(-c2ccnc(C(F)(F)F)c2)c1 [Compound I-79, N-(5-Methoxy-3-Methyl-1H-Indazol-4-yl)-1-(2-(Trifluoromethyl)Pyridin-4-yl)-1H-Pyrazole-4-Sulfonamide] |
| ≤ 400 | 1000 to 2500 | COc1ccc2[nH]nc(C)c2c1N(C)S(=O)(=O)c1cnn(-c2ccnc(C(F)(F)F)c2)c1 [Compound I-80, N-(5-methoxy-3-Methyl-1H-Indazol-4-yl)-N-Methyl-1-(2-(Trifluoromethyl)Pyridin-4-yl)-1H-Pyrazole-4-Sulfonamide] |
| ≤ 400 | < 400 | COc1ccc2[nH]nc(C)c2c1NS(=O)(=O)c1cnn(-c2cc(C(F)(F)F)ccn2)c1 [Compound I-81, N-(5-Methoxy-3-Methyl-1H-Indazol-4-yl)-1-(4-(Trifluoromethyl)Pyridin-2-yl)-1H-Pyrazole-4-Sulfonamide] |
| ≤ 400 | < 400 | COc1ccc2cnn(C)c2c1NS(=O)(=O)c1cn(-c2cc(C(F)(F)F)ccn2)nc1C [Compound I-83, N-(6-Methoxy-1-Methyl-1H-Indazol-7-yl)-3-Methyl-1-(4-(Trifluoromethyl)Pyridin-2-yl)-1H-Pyrazole-4-Sulfonamide] |
| > 2500 | < 400 | Cn1ncc2cccc(NS(=O)(=O)c3cnn(-c4cc(Cl)ccn4)c3)c21 [Compound I-86, 1-(4-Chloropyridin-2-yl)-N-(1-Methyl-1H-Indazol-7-yl)-1H-Pyrazole-4-Sulfonamide] |
| ≤ 400 | < 400 | COc1ncc2cnn(C)c2c1NS(=O)(=O)c1cnn(-c2ccnc(C(F)(F)F)c2)c1 [Compound I-87, N-(6-Methoxy-1-Methyl-1H-Pyrazolo[4,3-C]Pyridin-7-yl)-1-(2-(Trifluoromethyl)Pyridin-4-yl)-1H-Pyrazole-4-Sulfonamide] |
| > 2500 | < 400 | Cc1n[nH]c2cccc(NS(=O)(=O)c3cnn(-c4ccnc(C5CC5)c4)c3)c12 [Compound I-88, 1-(2-Cyclopropylpyridin-4-yl)-N-(3-Methyl-1H-Indazol-4-yl)-1H-Pyrazole-4-Sulfonamide] |
| > 2500 | < 400 | Cn1ncc2cccc(NS(=O)(=O)c3cnn(-c4cc(C5(F)CCC5)ccn4)c3)c21 [Compound I-94, 1-(4-(1-fluorocyclobutyl)pyridin-2-yl)-N-(1-methyl-1H-indazol-7-yl)-1H-pyrazole-4-sulfonamide] |
| > 2500 | < 400 | Cc1ncn2cccc(NS(=O)(=O)c3cnn(-c4cc(C(F)(F)F)ccn4)c3)c12 [Compound I-95, N-(1-methylimidazo[1,5-a]pyridin-8-yl)-1-(4-(trifluoromethyl)pyridin-2-yl)-1H-pyrazole-4-sulfonamide] |
| ≤ 400 | < 400 | [2H]C([2H])([2H])Oc1ccc2cnn(C)c2c1NS(=O)(=O)c1cnn(-c2cc(C3CC3)ccn2)c1 [Compound I-96, 1-(4-cyclopropylpyridin-2-yl)-N-(6-(methoxy-d3)-1-methyl-1H-indazol-7-yl)-1H-pyrazole-4-sulfonamide] |
| > 2500 | < 400 | COC1(c2ccnc(-n3cc(S(=O)(=O)Nc4cccc5cnn(C)c45)cn3)c2)CC(F)C1 (stereo not drawn) [Compound I-99, 1-(4-(3-fluoro-1-methoxycyclobutyl)pyridin-2-yl)-N-(1-methyl-1H-indazol-7-yl)-1H-pyrazole-4-sulfonamide] |
